From patent US20050165011A1, “Benzoxazine and benzoxazinone substituted triazoles” (priority 2002, published 2005)

Tested on: TGF-β signaling (PAl-1 promoter luciferase reporter, HepG2 cells)
Assay: Cellular transcriptional assay (PAI-1 promoter luciferase reporter in HepG2 cells exposed to TGF-β)
Type: cell-based
Settings: 500 μM CPO in the presence of TGF-β; toxicity control
Protocol: Assay 1 (Cellular Transcriptional Assay)
The assay was performed in HepG2 cells stably transfected with the PAl-1 promoter (known to be a strong TGF-β responsive promoter) linked to a luciferase (firefly) reporter gene. The compounds were selected on their ability to inhibit luciferase activity in cells exposed to TGF-β. In addition, cells were transfected with a second luciferase (Renilla) gene which was not driven by a TGF-β responsive promoter and was used as a toxicity control.
96 well microplates were seeded, using a multidrop apparatus, with the stably transfected cell line at a concentration of 35000 cells per well in 200 μl of serum-containing medium. These plates were placed in a cell incubator.
18 to 24 hours later (Day 2), cell-incubation procedure was launched. […] Each well contained only one candidate compound and its effect on the PAl-1 promoter was monitored.
Columns 11 and 12 were employed as controls. […] Column 11 was used to determine the ‘reference TGF-β induced firefly luciferase value’ against which values measured in the test wells (to quantify inhibitory activity) were compared. […]
12 to 18 hours later (day 3), the luciferase quantification procedure was launched. […] Following agitation (15 to 30 mins), luciferase activities of the plates were read in a dual-injector luminometer (BMG lumistar). […]

SMILES | firefly and renilla luciferase activities relative to TGF-β only wells
O=C1C=CCC1 [CPO, Cyclopentenone] | around 50%

Tested on: not given
Assay: not given
Settings: not given

SMILES | melting point [°C]
Cc1cccc(-c2[nH]nnc2-c2ccc3c(c2)NC(=O)CO3)n1 | 224
Cc1cccc(-c2[nH]nnc2-c2ccc3c(c2)N(CCN2CCOCC2)C(=O)CO3)n1 | 150
O=C1COc2ccc(-c3nn[nH]c3-c3ccccn3)cc2N1 | 256
O=C1COc2ccc(-c3nn[nH]c3-c3cccc(Cl)c3)cc2N1 | 220
CCN1C(=O)COc2ccc(-c3nn[nH]c3-c3cccc(C)n3)cc21 | 187
